According to patent US10160732B2, “MIF inhibitors” (MIFCARE, priority 2014, dated 2018):

Molecular target: T1, recombinant human MIF (Homo sapiens, UniProt P14174)
T1 construct: purchased RayBiotech
T1 sequence (P14174 2-115 limits assumed): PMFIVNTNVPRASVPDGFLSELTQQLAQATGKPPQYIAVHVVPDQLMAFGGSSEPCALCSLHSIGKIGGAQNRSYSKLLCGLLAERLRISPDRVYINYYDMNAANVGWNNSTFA
Assay: MIF tautomerase assay using 4-hydroxyphenylpyruvate (4-HPP)
Assay type: biochemical
Details: compounds tested at 1 nM; 300 ng/mL rhMIF; 4-HPP substrate; compared to positive control with recombinant human MIF alone
Description: Tautomerase activity was assessed using 4-hydroxyphenylpyruvate (4-HPP) as substrate. 4-HPP was dissolved in 50 mM ammonium acetate at pH 6.0, allowed to equilibrate to room temperature and stored at −20° C. 300 ng/mL of recombinant human MIF (rhMIF; RayBiotech, Le Perray en Yvelines, France) and tested compounds were pre-incubated at room temperature for 15 min. Tautomerase activity was assessed at room temperature, by adding 4-HHP to a 96-well plate containing 0.435 M boric acid at pH 6.6 and rhMIF with or without (positive control) tested compounds (1 nM), and by measuring the increase in absorbance at 320 nm over 10-360 s using the 2103 EnVision™ Multilabel Plate Readers (PerkinElmer, Villebon-sur-Yvette, France). Compounds were tested at 1 nM. The assay was replicated 3 times independently.
Compounds 38, 39 and 41 of the present invention were tested and compared to their respective “C═O” isosteres 38-O, 39-O and 41-O. Results are also compared to prototypical MIF inhibitor ISO-1.
Results are presented in table 2 below and represent the percentage of MIF tautomerase activity inhibition as compared to the positive control with recombinant human MIF alone.

Compound | inhibition at 0.001 µM
Cc1ccc2oc(=O)n(Cc3ccccc3)c2c1 [Compound 39-O] | 12%
COc1ccccc1Cn1c(=O)oc2ccc(C)cc21 [Compound 41-O] | 31%
